One test concerns MSSA (ATCC 25923). The test is described as follows: Broth microdilution MIC, MSSA ATCC 25923. It counts as cell-based. The conditions noted are these: Staphylococcus aureus, read-out: MIC value against MSSA ATCC 25923.
Test [1] relates to MSSA (ATCC 25923) biofilms. The test is described as follows: Minimum Biofilm Eradication Concentration (MBEC), Calgary Biofilm Device. The class given is cell-based, Staphylococcus aureus. The conditions noted are these: antibiotic alone.
Procedure: MBEC concentrations were measured using a procedure adapted from H. Ceri, et al., J Clin. Microbiol., 1999, 1771-1776, which is hereby incorporated herein by reference. Briefly, biofilm eradication experiments were performed using MSSA (ATCC 25923) and the Calgary Biofilm Device (CBD) to determine MBEC values for various compounds of interest (Innovotech, product code: 19111). The Calgary device is a 96-well plate with a lid containing 96 pegs that sit in the media contained in the bottom well. Biofilm are established on the individual pegs. The established biofilm (contained on the individual peg) can then be transferred to a new base well for MBEC testing. For the MBEC assay, an overnight culture of MSSA (ATCC 25923) was adjusted to 0.5 McFarland in MHB-G. The CBD was inoculated with 100 μL of the 0.5 McFarland and incubated at 37° C. for 24 hours to establish biofilms. The CBD lid containing the established biofilms on individual pegs was removed, washed 3× with PBS and transferred to another 96-well plate containing serial dilutions of the test compounds (the “challenge plate”) and incubated at 37° C. for 24 hours. […] The plate was then sonicated for sonicated for 30 minutes to disperse biofilms on S16 the pegs into the fresh MHB in the base well. After sonication, the plate was incubated for 24 hours at 37° C.
Test [2] deals with MRSA (ATCC BAA 44) biofilm. Description: Inhibition of MRSA biofilm formation (crystal violet). It counts as cell-based. The conditions noted are these: Staphylococcus aureus, 24 h, Table 1. On the procedure:
General information—Biological Assays. Methicillin-resistant and methicillin sensitive Staphylococcus aureus (MRSA and MSSA respectively) strains were obtained from the Laboratory of Professor Christian Melander (NCSU) (ATCC BAA 44 and 33591) and Dr. Jessica Gilbertie (ATCC 25923). Bacteria were kept in frozen stocks on glycerol at −80° C. until use. Bacteria was streaked onto tryptic-soy agar for colony isolation. Mueller-Hinton broth (MHB, 211443-BD), tryptic soy broth (TSB, Remel: R455052) and D-glucose (CAS: 492-62-6) were purchased from Fisher Scientific. Tryptic soy agar (TSA, cat. #22091) and Linezolid (cat. #P70014) were purchased from Sigma-Aldrich. Bacteria for biofilm inhibition were cultured overnight in TSB-G (tryptic soy broth with 0.5% glucose supplement) in 96 well plates. All assays were run in duplicate and repeated at least two separate times for MIC assays and at least three separate times for biofilm inhibition. All compounds were dissolved in molecular biology grade DMSO as 10 mM stock solutions. Optical densities were measured using a Thermo Scientific Genesys 20 spectrophotometer. Data for biofilm inhibition were collected using a BioTek ELx808 Microplate Reader. All graphs were generated and analyzed using GraphPad Prism 7.
Determination of the inhibitory effect of test compounds on MRSA biofilm formation. Inhibition assays were performed using a procedure adapted from S. A. Rogers and C. Melander, Angew. Chem. Int. Ed., 2008, 47, 5229-5231, which is hereby incorporated herein by reference. Briefly, the inhibition assays were performed by subculturing an overnight culture of MRSA (ATCC BAA 44) to an OD600 of 0.01 in TSB-G (tryptic soy broth with a 0.5% glucose supplement). Stock solutions of predetermined concentrations of the test compound were then made using the inoculated TSB-G. These stock solutions were aliquoted (100 μL) into the wells of the 96-well microtiter plate. Sample plates were sealed then incubated for 24 h at 37° C. After incubation, the medium was discarded from the wells and the plates were washed 2× with PBS. Prior to staining, plates were left to dry at ambient temperature for 2-3 h. Plates were then stained with 0.1% solution of crystal violet (CV, 125 μL) and then incubated at ambient temperature for 30 min. Plates were washed with PBS again and the remaining stain was solubilized with 99% ethanol (200 μL). A sample of solubilized CV stain (110 μL) from each well was transferred to the corresponding wells of a polystyrene microtiter dish. Biofilm biomass was quantified by measuring the OD540 of each well and inhibition was calculated as a percentage of the control (no compound); a negative control lane wherein no biofilm was formed served as a background and was subtracted out. Percent inhibition was then plotted against concentration in Prism 7. Each of the four experiments were plotted separately and S15 analyzed by a normalized nonlinear regression. The graphs on the following pages were generated from an average of the total data set. Biofilm data represent four separate experiments, with each experiment performed in duplicate (average of 8 data points for each concentration tested, unless otherwise noted).

Another test deals with MRSA (ATCC 33591). The test is described as follows: Broth microdilution MIC, MRSA ATCC 33591. It counts as cell-based. The following applies: Staphylococcus aureus; Table 1, Compounds 1-15; preliminary data, modified non-standard conditions (pH 9), solubility-limited. The gist of the method: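 CLSI M07-A8 broth microdilution; MRSA ATCC 33591 grown 6-8 h in MHB, inoculated at 5×10^5 CFU/mL. Compound added from 10 mM DMSO stock, typical top concentration 128 μg/mL; stationary incubation at 37° C. MIC taken as lowest concentration with no visible growth; assay conditions modified to aid solubility.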

The structures appear in SMILES notation. Where a name gives a salt, the structure may show the parent alone. Read-outs that look alike come from different tables or passages of the source.

Results on five compounds are retold here after US20250326718A1, “4-PHENYL-2-PYRROLIDINONES AND METHODS OF USING THEREOF” (North Carolina State University, priority 2022, published 2025).

For `CN[C@H](CC(C)C)C(=O)N[C@H]1C(=O)N[C@@H](CC(N)=O)C(=O)N[C@H]2C(=O)N[C@H]3C(=O)N[C@H](C(=O)N[C@H](C(=O)O)c4cc(O)cc(O)c4-c4cc3ccc4O)[C@H](O)c3ccc(c(Cl)c3)Oc3cc2cc(c3O[C@@H]2O[C@H](CO)[C@@H](O)[C@H](O)[C@H]2O[C@H]2C[C@](C)(N)[C@H](O)[C@H](C)O2)Oc2ccc(cc2Cl)[C@H]1O` [Vancomycin, vancomycin hydrochloride, reference compound], in the test with MSSA (ATCC 25923), the minimal inhibitory concentration (MIC) stood at 0.5 µg/mL. For the same compound, the “MBEC value against MSSA ATCC 25923” value in test [1] was found to be 2048 pug/mL.
For `Cc1onc(-c2ccccc2)c1C(=O)N[C@@H]1C(=O)N2[C@@H]1SC(C)(C)[C@@H]2C(=O)O` [Oxacillin, oxacillin sodium monohydrate, reference compound], in the test with MSSA (ATCC 25923) (antibiotic alone), the minimum inhibitory concentration (MIC) was 0.5 µg/mL. The “MBEC value against MSSA ATCC 25923” value in test [1] worked out at 2048 pug/mL.
With `CC(C)C1C(c2ccc(C(F)(F)F)cc2)=C(O)C(=O)N1c1ccccc1` (stereo not shown) [Compound 10, 3-Hydroxy-5-isopropyl-1-phenyl-4-(4-(trifluoromethyl)phenyl)-1,5-dihydro-2H-pyrrol-2-one], in test [2], the inhibition at 5 µM is -5% and the inhibition at 40 µM turned out to be 3%. In addition, the minimal inhibitory concentration (MIC) in the test with MRSA (ATCC 33591) is over 128 µg/mL.
Regarding `CCC1C(c2ccc(C(F)(F)F)cc2)=C(O)C(=O)N1CCC(C)C` (stereo not shown) [Compound 14, 5-Ethyl-3-hydroxy-1-isopentyl-4-(4-(trifluoromethyl)phenyl)-1,5-dihydro-2H-pyrrol-2-one], in test [2], the inhibition at 5 µM is 47% and the inhibition at 40 µM amounted to 43%. Besides, the MIC against MRSA (ATCC 33591) is over 128 µg/mL.
The matching figures for `CCC1C(c2ccc(C(F)(F)F)cc2)=C(O)C(=O)N1Cc1cccs1` (stereo not shown) [Compound 7, 5-Ethyl-3-hydroxy-1-(thiophen-2-ylmethyl)-4-(4-(trifluoromethyl)phenyl)-1,5-dihydro-2H-pyrrol-2-one]: 54%, 79% and over 128 µg/mL.
